Assays:
[1] = test system: experimental asthma model (airway resistance); assay: Effect on experimental asthma model in guinea pigs (airway resistance); format: in vivo, guinea pigs (male hartley); conditions: 50 mg/kg oral (TABLE 6); for inhibition in vivo at 50 mg/kg: Cavia porcellus, po, 0.5 h
Procedure: Effect on experimental asthma model in guinea pigs
The asthma is typical allergic disease and we carried out this pharmacological test by well known experimental asthma model in guinea pigs in order to comfirm that the compounds of the present invention suppress the asthma. In the following, the method of the pharmacological test will be explained.
Method: Male hartley guinea pigs were immunized by intraperitoneal injection of saline (1ml) containing 5 mg of ovalbumine (OVA) three times at interval of one week. 2 weeks after final immunization, the animals were challenged by inhalation of 1% OVA-saline solution for 1 minute and then the airway resistance of the animals were measured for 30 minutes with PULMOS-1 (Medical Interface Project Station Inc.) after the inhalation. The compounds of the present invention (test compounds) suspended in 0.5% CMCNa were given orally at a dose of 50 mg/kg. As positive control group, Disodium Cromoglicate (DSCG), well known anti-allergic agent, in saline were injected at a dose of 20 mg/kg into the vein of the animals. As vehicle control group, only 0.5% CMCNa solution were given orally. The inhibition (%) of the airway resistance in vehicle control group was calculated according to equation 5 and the result was shown in TABLE 6. Each experimental group consisted of 5 guinea pigs. [formula]
A: Maximum airway resistance in vehicle control group
B: Maximum airway resistance in test compounds group or positive control group

[2] = test system: contact dermatitis induced by picryl chloride; assay: Effect on contact dermatitis induced by picryl chloride in mice; format: in vivo; conditions: 50 mg/kg oral, 1 hour before and 16 hours after challenge, 24 hours after challenge; for inhibition in vivo at 50 mg/kg: Mus musculus, po, 24 h, read-out: Inhibition (%) against the increase of ear thickness
Procedure: Effect on contact dermatitis induced by picryl chloride in mice
The delayed type hypersensitization is inhibited by steroid drugs,but can not be effected by known anti-allergic agents. In the following, the method of the pharmacological test will be explained.
Method: Mice, shaved their abdominal skin on previous day, were immunized by applying 0.1 ml of acetone containing 7 mg of picryl chloride to the skin of the abdomen. 7 days after immunization, the thickness of the ear was measured with a dial thickness gauge, then mice were challenged by painting 5 μl of 1% picryl chloride olive oil solution to each side skin of left ear. 24 hours after challenge, the thickness of the left ear was measured again and the increase (%) of thickness was calculated according to equation 2. The compounds of the present invention (test compounds) suspended in 0.5% CMCNa were forcibly administered orally at a dose of 50 mg/kg at 1 hour before and 16 hours after challenge. As vehicle control group, only 0.5% CMCNa solution were administered orally, and as positive control group, Prednisolone, steroid hormone, and Tranilast were administered orally at the doses of 10 mg/kg and 100 mg/kg, respectively.
Increase (%)=(A-B)/B×100 (Equation 2)
A: thickness of the ear at 24 hours after challenge
B: thickness of the ear before challenge
Inhibition (%)=(C-D)/C×100 (equation 3)
C: The increase (%) in vehicle control group
D: The increase (%) in test compounds group or positive control group

[3] = test system: homologous passive cutaneous anaphylaxis (PCA) reaction; assay: Effect on homologous passive cutaneous anaphylaxis (PCA) reaction in rats; format: in vivo, rats (male wistar); conditions: 50 mg/kg oral, 1 hour before challenge (TABLE 2); for inhibition in vivo at 50 mg/kg: Rattus norvegicus, po, 0.5 h
Procedure: Effect on homologous passive cutaneous anaphylaxis (PCA) reaction in rats.
This experimental animal model is caused by immediate type allergic reaction namely, antigen-antibody reaction. In the following, the method of this pharmacological test will be explained.
Method: Male wistar rats (9 weeks old) were intradermally administered 0.05 ml of anti-serum against dinitrophenylated ascaris (DNP-As) into two sites on the shaved dorsal skin. 48 hours later, 7-glycosyloxybenzopyran derivatives (test compounds) suspended in 0.5% sodium carboxymethylcellulose (CMCNa) were given orally at a dose of 50 mg/kg to the animals. One hour after administration of Test compounds, the animals were induced anaphylaxis by injection of saline (1 ml) dissolving 5 mg of Evans Blue and 1 mg of Trinitrophenylated ascaris (TNP-As) into the tail vein of the animals. 30 minutes after induction of anaphylaxis, animals were anesthetized by ether and killed by bleeding, and were flayed dorsal skin. The determination of extravasated dye was performed according to the method of Katayama et al. (Microbiol. Immunol., Vol.22, P 89-101, 1978). As vehicle control group, only 0.5% CMCNa solution was administered orally, and as positive control group, Tranilast suspended in 0.5% CMCNa was administered orally at a dose of 100 mg/kg to the animals with the same method as the test compounds groups. Each experimental group consisted of 5 rats. [formula]

SMILES | inhibition in vivo at 50 mg/kg [1] [%] | inhibition in vivo at 50 mg/kg [2] [%] | inhibition in vivo at 50 mg/kg [3] [%] | Inhibition (%) of the airway resistance [1] [%] | Inhibition (%) against the increase of ear thickness [2] [%] | Inhibition (%) of PCA reaction [3] [%]
COc1c(O)c(=O)oc2cc(O[C@H]3O[C@H](CO)[C@@H](O)[C@H](O)[C@@H]3O)ccc12 [compound 131] | 42.5 | 40.9 | 41.2 |  |  | 
CCCCCCCCCCCCOc1c(O)c(=O)oc2cc(O[C@@H]3O[C@H](CO)[C@@H](O)[C@H](O)[C@H]3O)ccc12 [compound 155] |  |  |  | 57.6 | 40.9 | 42.9
CCC=CCCOc1c(O)c(=O)oc2cc(O[C@@H]3O[C@H](CO)[C@@H](O)[C@H](O)[C@H]3O)ccc12 [compound 116] | 62.8 | 44.4 | 46.1 |  |  | 
CCCCCCCCCCOc1c(O)c2ccc(O[C@@H]3O[C@H](CO)[C@@H](O)[C@H](O)[C@H]3O)cc2oc1=O [compound 40] | 73.1 | 62.1 | 57.3 |  |  | 
COc1c(O)c2ccc(O[C@@H]3O[C@H](CO)[C@@H](O)[C@H](O)[C@H]3O)cc2oc1=O [compound 3, 3-methoxy-4-hydroxy-7-(β-D-glucopyranosyloxy)-2H-1-benzopyran-2-one] | 63.1 | 51.3 | 53.1 |  |  | 
O=c1oc2cc(O[C@@H]3O[C@H](CO)[C@@H](O)[C@H](O)[C@H]3O)ccc2c(O)c1OCc1ccccc1 [compound 47] | 59.1 | 51.9 | 52.1 |  |  | 
CC(C)=CCC/C(C)=C/COc1c(O)c2ccc(O[C@@H]3O[C@H](CO)[C@@H](O)[C@H](O)[C@H]3O)cc2oc1=O [compound 46] | 63.4 | 57.6 | 54.3 |  |  | 
C=COc1c(O)c2ccc(O[C@H]3O[C@H](CO)[C@@H](O)[C@H](O)[C@@H]3O)cc2oc1=O [compound 69] | 59.3 | 49.9 | 48.1 |  |  | 
COc1c(O)c(=O)oc2cc(O[C@@H]3O[C@H](CO)[C@@H](O)[C@H](O)[C@H]3O)ccc12 [compound 153] |  |  |  | 54.3 | 44.7 | 42.4
CCC=CCCOc1c(O)c2ccc(O[C@@H]3O[C@H](CO)[C@@H](O)[C@H](O)[C@H]3O)cc2oc1=O [compound 45] | 62.3 | 54.2 | 55.2 |  |  | 
CC1CCC(Oc2c(O)c3ccc(O[C@H]4O[C@H](CO)[C@@H](O)[C@H](O)[C@@H]4O)cc3oc2=O)CC1 (stereo partly drawn) [compound 68] | 63.5 | 47.3 | 49.5 |  |  | 
CC1CCC(Oc2c(O)c3ccc(O[C@@H]4O[C@H](CO)[C@H](O)[C@H](O)[C@H]4O)cc3oc2=O)CC1 (stereo partly drawn) [compound 92] | 65.2 | 57.2 | 58.9 |  |  | 
CCCCOc1c(OC(=O)CC)c(=O)oc2cc(O[C@@H]3O[C@H](COC(C)=O)[C@@H](OC(C)=O)[C@H](OC(C)=O)[C@H]3OC(C)=O)ccc12 [compound 99] | 39.2 | 40.3 | 40.2 |  |  | 
CCCCOc1c(O)c(=O)oc2cc(O[C@@H]3O[C@H](CO)[C@@H](O)[C@H](O)[C@H]3O)ccc12 [compound 110] | 56.5 | 42.9 | 41.4 |  |  | 
